Consider four molecules from patent US20250257064A1, “TRIFLUOROMETHYL-SUBSTITUTED SULFONAMIDE AS BCL-2-SELECTIVE INHIBITOR” (Chia Tai Tianqing Pharmaceutical Group Co., Ltd., priority 2018, published 2025).

Series [1] can be described thus: In vitro stability in rat liver microsomes. The class given is in vitro ADME. To be noted: 1 μM. As for the experimental part:
(§1) Experimental Example 3: In Vitro Stability in Liver Microsome
(§2) 300 μL of the final incubation system contains 30 μL of liver microsomes (protein concentration: 5 mg/mL), 30 μL of NADPH+MgCl2, 3 μL of the test compound (in acetonitrile), and 237 μL of PBS buffer (pH 7.4), wherein the proportion of the organic solvent (acetonitrile) is 1% (volume ratio). Two duplicate samples were prepared for each specie (mouse, rat and human), and each sample was 0.3 mL. Each tube which was added with 270 μL of a mixed solution of substrate and enzyme, and NADPH, after being pre-incubated at 37° C. for 5 min, was added with 30 μL of NADPH+MgCl2 and mixed. Then 50 μL of the mixture was taken at 0 min, 15 min, 30 min and 60 min, and added with 300 μL of glacial acetonitrile containing an internal standard to terminate the reaction.
(§3) 50 μL of the incubated sample was added with 300 μL of glacial acetonitrile containing an internal standard (20 ng/mL diazepam) for precipitation, vortexed for 5 min, and centrifuged (13,000 rpm, 20° C.) for 10 min. 70 μL of supernatant was taken and diluted with 70 μL of ultrapure water. After being mixed well, 1 μL of the resulting sample was injected for analysis.
Background: Liver microsomes are a subcellular fraction often used to study metabolism.

Series [2] has as its system human platelet Caspase-3 activity. The experiment in a line: Human platelet toxicity experiment (Caspase-3 activity assay). The class given is cell-based. To be noted: 90 min, data normalized, reference ABT-199. The protocol:
Experimental Example 6: Human Platelet Toxicity Experiment (Caspase-3 Activity Assay)
10 mL of human whole blood was collected using a heparin sodium anticoagulation tube, mixed well by turning upside down, and centrifuged at 90 g for 10 min. The supernatant was collected and centrifuged at 1950 g for 10 min. The supernatant was discarded, and the residue was resuspended in 4 mL of PBS, and centrifuged at 1190 g for 5 min, and the procedure was repeated once. The supernatant was discarded, and the platelets were resuspended in PBS and adjusted to the density of 2-3×10^8 cells/mL. Cells were seeded into a 96-well plate at a density of 2-3×10^7 cells/mL and at 100 μL/well. 50 μL of control buffer was added to each negative control well, and 50 μL of compound at a corresponding concentration was added to each compound well, so that the final concentration of the compound was 2.5 μM, 2 μM, 1 μM or 0.5 μM, followed by incubation in an incubator at 37° C. for 90 min. The liquids in the 96-well plate were transferred to 1.5 mL centrifuge tubes, respectively. The tubes were centrifuged at 4° C. and 6000 g for 5 min, and placed on ice for later use after the supernatant was discarded. 5× lysis buffer was diluted into 1× lysis buffer with water in the kit, and protease inhibitor cocktail was added at a 1:200 ratio to prepare a lysis mixture for later use. 40 μL of lysis mixture was added to each centrifuge tube, and the platelets at the bottom were resuspended using a pipette. The suspension was lysed on ice for 15-20 min and centrifuged at 4° C. and 14,000 g for 10 min. The sample was sub-packaged for later use. 10× assay buffer was diluted into 1× assay buffer with water in the kit, and substrate Ac-DEVD-AMC was added at a 1:600 ratio to prepare a reaction mixture. 5 μL of assay buffer and 40 μL of reaction mixture were added to each blank control well. 5 μL of control platelet lysate and 40 μL of reaction mixture were added to each negative control well. 5 μL of platelet lysate and 40 μL of reaction mixture were added to each compound well. In this procedure, 40 μL of reaction mixture was added at last. The resulting mixture was mixed gently, and the plate was read by a PE Envision multi-functional microplate reader (excitation: 360 nm, emission: 460 nm) once every 10 min for 6 times. Caspase-3 activity was determined based on the intensity of the released AMC fluorescence, that is the slope of the fitted line to which each well corresponds represents Caspase activity (all data were normalized and the reference was ABT-199).

Series [3] in a line: In vitro stability in mouse liver microsomes. It counts as in vitro ADME. To be noted: 1 μM. As for the experimental part:
as §1, §2, §3

Series [4] in a line: In vitro stability in human liver microsomes. The class given is in vitro ADME. To be noted: 1 μM. As for the experimental part: as §1, §2, §3
The target in the next series is T1, BCL-2/BAK (Homo sapiens, UniProt P10415).
T1 construct: purchased Cisbio
The experiment in a line: Screening on inhibitory activity for BCL-2/BAK binding (Cisbio HTRF kit). The gist of the method: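 HTRF competition assay: Tag1-BCL-2 and Tag2-BAK working dilutions were 5 nM and 120 nM. Compound (200–0.0488 nM final, 4-fold, 7 points, duplicates) was incubated with the proteins for 15 min at 25 °C, then with Eu-cryptate/XL665 antibodies for ≥2 h at 25 °C. IC50 was derived from a four-parameter fit.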

Another series relates to RS4;11 cells. Kind of series: Inhibitory effect on proliferation of RS4;11 cells (CCK-8). The class given is cell-based, human. Particulars: Homo sapiens, RS4-11, 72 h. The gist of the method:
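RS4;11 cells were seeded at 1×10^5 cells/mL in RPMI with 5% FBS and incubated 24 h at 37° C, 5% CO2 before compound addition in duplicate. Inhibition was calculated against untreated and blank controls. IC50 came from a four-parameter fit of log concentration versus inhibition.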

For the next series, the target named is T2, BCL-XL/BAK (Homo sapiens, UniProt Q07817).
T2 construct: purchased Cisbio
The experiment in a line: Screening on inhibitory activity for BCL-XL/BAK binding (Cisbio HTRF kit). The gist of the method:
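Tag1-BCL-XL and Tag2-BAK (2 nM and 80 nM before mixing) were combined with compounds at final 2000–0.488 nM (4-fold, 7 points, duplicates) for 15 min at 25° C. Eu3+ anti-Tag1 and XL665 anti-Tag2 were then added for ≥2 h at 25° C. HTRF (620/665 nm) gave IC50 by four-parameter fit.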
Background: In TR-FRET formats the signal depends on donor and acceptor labels being close together.

pIC50: −log10 of the molar value.

T2 sequence (Q07817 whole entry, species assumed): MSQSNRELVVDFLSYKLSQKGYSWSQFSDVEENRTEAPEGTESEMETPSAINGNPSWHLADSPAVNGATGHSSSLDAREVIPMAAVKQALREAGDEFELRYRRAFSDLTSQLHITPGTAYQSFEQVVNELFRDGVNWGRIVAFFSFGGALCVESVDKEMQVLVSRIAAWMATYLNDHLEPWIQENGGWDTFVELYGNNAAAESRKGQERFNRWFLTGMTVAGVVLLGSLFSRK
T1 sequence (P10415 whole entry, species assumed): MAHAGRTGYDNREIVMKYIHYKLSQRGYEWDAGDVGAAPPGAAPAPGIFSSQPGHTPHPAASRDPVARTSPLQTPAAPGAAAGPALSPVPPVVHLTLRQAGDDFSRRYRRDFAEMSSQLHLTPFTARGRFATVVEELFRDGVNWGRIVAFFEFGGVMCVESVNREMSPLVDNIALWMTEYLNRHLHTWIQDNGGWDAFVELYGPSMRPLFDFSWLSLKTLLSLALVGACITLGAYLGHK

As a reminder, the pIC50 is the negative decadic logarithm of the IC50, by convention in mol/L. The low end stands for a high IC50, the high end for a low IC50. Regarding `CC1(C)CCC(CN2CCN(c3ccc(C(=O)NS(=O)(=O)c4ccc(NCC5CCOCC5)c([N+](=O)[O-])c4)c(Oc4cnc5[nH]ccc5c4)c3)CC2)=C(c2ccc(C(F)(F)F)c(F)c2)C1` [Compound 6-1, 4-(4-{[2-(3-fluoro-4-trifluoromethylphenyl)-4,4-dimethylcyclohex-1-enyl]methyl}-piperazin-1-yl)-N-({3-nitro-4-[(tetrahydro-2H-pyran-4-ylmethyl)amino]phenyl}sulfonyl)-2-(1H-pyrrolo[2,3-b]pyridin-5-yloxy)-benzamide], the “Rat Residual content after 60 min (%)” value in series [1] is 61.2%. Further, the “human platelet Caspase-3 activity, Slope” value in series [2] (compound concentration 1 μM) came to 0.45. Also, the “Mouse Residual content after 60 min (%)” value in series [3] amounted to 65.3%. For the same molecule, in series [4], the “Human Residual content after 60 min (%)” value was determined as 65.9%. In addition, the pIC50 on BCL-2/BAK was 8.24; in the series on RS4;11 cells it was 8.62; at BCL-XL/BAK, 5.71.
Regarding `CC(C)C(=O)N1CCOC(CNc2ccc(S(=O)(=O)NC(=O)c3ccc(N4CCN(CC5=C(c6ccc(C(F)(F)F)cc6Cl)CC(C)(C)CC5)CC4)cc3Oc3cnc4[nH]ccc4c3)cc2[N+](=O)[O-])C1` (centres unmarked) [Compound 10-1, 4-(4-{[2-(2-chloro-4-trifluoromethylphenyl)-4,4-dimethylcyclohex-1-enyl]methyl}-piperazin-1-yl)-N-({3-nitro-4-[((4-isobutyrylmorpholin-2-yl)methyl)amino]phenyl}sulfonyl)-2-(1H-pyrrolo[2,3-b]pyridin-5-yloxy)-benzamide], the “Rat Residual content after 60 min (%)” value in series [1] turned out to be 69.9%. The “Mouse Residual content after 60 min (%)” value in series [3] is listed as 30.1%. In series [4], the “Human Residual content after 60 min (%)” value is given as 78.0%. Further, the negative logarithm of the IC50 (pIC50) was 8.55 at BCL-2/BAK, 8.25 in the series with RS4;11 cells and 6.71 on BCL-XL/BAK.
As to `COCC(=O)N1CCO[C@H](CNc2ccc(S(=O)(=O)NC(=O)c3ccc(N4CCN(CC5=C(c6ccc(C(F)(F)F)cc6Cl)CC(C)(C)CC5)CC4)cc3Oc3cnc4[nH]ccc4c3)cc2[N+](=O)[O-])C1` [Compound 11-1], in series [1], the “Rat Residual content after 60 min (%)” value stood at 66.3%. Further, the “human platelet Caspase-3 activity, Slope” value in series [2] (compound concentration 0.5 μM) is 0.42; in series [2] (compound concentration 2 μM), 0.57. Besides, in series [3], the “Mouse Residual content after 60 min (%)” value is reported as 62.9%. Besides, the “Human Residual content after 60 min (%)” value in series [4] came to 67.4%. Also, the values for the pIC50 at BCL-2/BAK, with RS4;11 cells and on BCL-XL/BAK were 8.80, 8.60 and 6.85, respectively.
Turning to `CC1(C)CCC(CN2CCN(c3ccc(C(=O)NS(=O)(=O)c4ccc(NCC5CN(S(C)(=O)=O)CCO5)c([N+](=O)[O-])c4)c(Oc4cnc5[nH]ccc5c4)c3)CC2)=C(c2ccc(C(F)(F)F)cc2Cl)C1` (centres unmarked) [Compound 12-1, 4-(4-{[2-(2-chloro-4-trifluoromethylphenyl)-4,4-dimethylcyclohex-1-enyl]methyl}-piperazin-1-yl)-N-({3-nitro-4-[((4-methylsulfonylmorpholin-2-yl)methyl)amino]phenyl}sulfonyl)-2-(1H-pyrrolo[2,3-b]pyridin-5-yloxy)-benzamide], in series [1], the “Rat Residual content after 60 min (%)” value is given as 80.2%. For the same molecule, the “human platelet Caspase-3 activity, Slope” value is on record as 0.27 in series [2] (compound concentration 0.5 μM) and 0.33 in series [2] (compound concentration 2 μM). The “Mouse Residual content after 60 min (%)” value in series [3] is recorded as 93.4%. Further, the “Human Residual content after 60 min (%)” value in series [4] came out at 91.3%. The pIC50 is 8.85 at BCL-2/BAK, 8.77 in the series on RS4;11 cells and 6.95 on BCL-XL/BAK.
